Assay results: paper PMC3072440 (Chemical research in toxicology, 2010)
Where two headings read alike, the source gives them in different places.

What was measured:
human P450 3A4 [1] = biological target: T1, human P450 3A4 (Homo sapiens, UniProt P08684); assay: Effect on P450 3A4-catalyzed midazolam 1’-hydroxylation
human P450 3A4 [2] = biological target: T1, human P450 3A4
human P450 2C9 = human P450 2C9 (Homo sapiens, UniProt P11712); assay: Inhibition of P450 2C9-dependent flurbiprofen 4’-hydroxylation
human P450 1A1 = biological target: T2, human P450 1A1 (Homo sapiens, UniProt P04798); assay: Inhibition of P450 1A1-dependent EROD activity; type: biochemical
T2 sequence (P04798 1-512): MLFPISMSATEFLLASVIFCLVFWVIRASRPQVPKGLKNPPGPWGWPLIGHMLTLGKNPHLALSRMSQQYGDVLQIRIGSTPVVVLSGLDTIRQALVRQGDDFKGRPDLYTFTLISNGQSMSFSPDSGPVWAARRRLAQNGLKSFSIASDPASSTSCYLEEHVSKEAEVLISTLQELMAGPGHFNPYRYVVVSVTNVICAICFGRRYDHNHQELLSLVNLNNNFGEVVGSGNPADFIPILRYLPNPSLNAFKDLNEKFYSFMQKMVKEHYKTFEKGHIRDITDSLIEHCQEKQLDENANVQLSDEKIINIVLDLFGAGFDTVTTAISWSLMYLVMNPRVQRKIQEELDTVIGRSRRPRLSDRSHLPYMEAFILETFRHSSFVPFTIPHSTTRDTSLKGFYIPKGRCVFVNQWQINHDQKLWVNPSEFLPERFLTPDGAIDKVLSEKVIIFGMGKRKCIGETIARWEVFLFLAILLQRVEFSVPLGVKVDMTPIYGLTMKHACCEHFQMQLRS

human P450 3A4 [3] = biological target: T1, human P450 3A4; assay: Spectral binding titration with purified P450 3A4; details: decreases in α and β bands monitored; up to 100 µM
CYP3A4 (P450 3A4) = CYP3A4 (P450 3A4) (Homo sapiens, UniProt P08684); assay: Inhibition of P450 3A4-dependent midazolam 4-hydroxylation; details: human, pH 7.4, probe midazolam (0.1 mM), 4-hydroxylation
human P450 3A4 [4] = biological target: T1, human P450 3A4; remark: listed apart in the source

T1 sequence (P08684 whole entry): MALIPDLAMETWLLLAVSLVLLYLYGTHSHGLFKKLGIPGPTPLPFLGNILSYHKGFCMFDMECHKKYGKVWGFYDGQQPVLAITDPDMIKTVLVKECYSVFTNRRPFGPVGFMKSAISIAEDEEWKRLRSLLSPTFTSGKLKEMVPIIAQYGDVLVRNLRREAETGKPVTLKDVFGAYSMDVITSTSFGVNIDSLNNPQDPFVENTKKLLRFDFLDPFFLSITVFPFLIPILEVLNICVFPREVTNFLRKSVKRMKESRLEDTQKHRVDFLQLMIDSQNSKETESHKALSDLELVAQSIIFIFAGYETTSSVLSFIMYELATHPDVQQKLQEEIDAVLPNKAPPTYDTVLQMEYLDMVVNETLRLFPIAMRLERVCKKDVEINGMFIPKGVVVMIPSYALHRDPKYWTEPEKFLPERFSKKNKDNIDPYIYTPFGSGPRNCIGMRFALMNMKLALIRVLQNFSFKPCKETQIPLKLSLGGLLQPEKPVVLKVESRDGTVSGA
Sequence of CYP3A4 (P450 3A4) (P08684 whole entry): as above
Sequence of human P450 2C9 (P11712 whole entry): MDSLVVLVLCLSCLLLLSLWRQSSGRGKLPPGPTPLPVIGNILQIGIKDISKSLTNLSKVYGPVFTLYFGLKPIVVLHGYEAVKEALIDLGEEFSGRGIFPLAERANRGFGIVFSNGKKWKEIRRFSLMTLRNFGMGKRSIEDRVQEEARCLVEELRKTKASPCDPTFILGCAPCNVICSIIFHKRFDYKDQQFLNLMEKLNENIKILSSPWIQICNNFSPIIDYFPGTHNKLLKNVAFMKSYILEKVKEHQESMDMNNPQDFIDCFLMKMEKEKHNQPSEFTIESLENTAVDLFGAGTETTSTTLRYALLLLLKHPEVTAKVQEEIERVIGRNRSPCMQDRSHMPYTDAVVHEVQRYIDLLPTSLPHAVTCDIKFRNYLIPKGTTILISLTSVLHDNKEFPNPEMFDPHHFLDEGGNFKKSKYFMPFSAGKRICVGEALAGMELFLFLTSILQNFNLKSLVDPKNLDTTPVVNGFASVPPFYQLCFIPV

inhibition of P450 2C9 flurbiprofen 4’-hydroxylation, in words (human P450 2C9)	IC50 (human P450 1A1)	spectral change / Type I binding spectra with P450 3A4, in words (human P450 3A4 [3])	IC50 (CYP3A4 (P450 3A4))	effect on formation of 1’-hydroxymidazolam by P450 3A4, in words (human P450 3A4 [4])	SMILES	effect on formation of 1’-hydroxymidazolam by P450 3A4, in words (human P450 3A4 [1])	inhibition of P450 3A4 midazolam 4-hydroxylation, in words (human P450 3A4 [2])
					O=C1CC(c2ccccc2)Oc2ccccc21 (centres unmarked) [flavanone]	enhanced the formation of 1’-hydroxymidazolam	inhibited the formation of 4-hydroxymidazolam
strong inhibitors	5.8 µM	induced spectral changes	16 µM		COc1cccc(-c2cc(=O)c3c(O)cc(O)cc3o2)c1 [3’M57DHF, 3’-methoxy-5,7-dihydroxyflavone]		
				slightly activated	O=c1cc(-c2ccc(O)cc2)oc2cc(O)cc(O)c12 [4’57THF, 4’5,7-trihydroxyflavone]		significantly inhibited
